Reference: US9320735B2, “Myeloid derived suppressor cell inhibiting agents” (Colorado State University Research Foundation, priority 2010, dated 2016)
Like-named read-outs stand apart in the source and are kept apart here.

Assays:
CCR2 [1] = target: T1, CCR2 (Homo sapiens, UniProt P41597); conditions: read-out: CCR2 IC(50) bind; cited from earlier work
CCR2 [2] = target: T2, CCR2 (Mus musculus, UniProt P51683); assay: Antibody titers to ovalbumin after CLDC/ovalbumin vaccination with RS102895 (FIG. 33); assay type: in vivo, mice; conditions: 5 mg/kg 1 day before, same day, 1 day after
T2 construct: endogenous in cells
Experimental: FIG. 33. Effects of co-administration of RS102895 (small molecule inhibitor, Tocris Bioscience), on antibody responses following vaccination via two different modes of administration i.p. (intraperitoneally) or SQ (subcutaneous). Mice were vaccinated SQ with standard vaccine adjuvant (CLDC) and 5 ug ovalbumin, and boosted 10 days later. The first group of mice (n=4 per group) received the vaccine only (cross-hatch bar). A second group of mice was vaccinated and also treated 1 day before, on the same day, and 1 day after with 5 mg/kg of the CCR2 antagonist RS102895 (horizontal line bar), administered i.p. A third group of mice was vaccinated and also treated 1 day before, on the same day, and 1 day after with 5 mg/kg of the CCR2 antagonist RS102895, administered s.c. at the site of vaccination (vertical line bar). Antibody titers to ovalbumin were determined 2 weeks after the boost and plotted as endpoint dilution titers for all animals in all groups. […]
Mice were vaccinated subcutaneous (s.c.) with standard vaccine adjuvant (CLDC) (Cationic liposome-DNA complexes) and 5 ug ovalbumin and boosted 10 days later. […] Antibody titers to ova were determined 2 weeks after the boost and plotted as endpoint dilution titers. […]

CCR2 [3] = target: T2, CCR2; assay: IFN-γ release by spleen cells of vaccinated mice treated with RS102895 (FIG. 34); assay type: in vivo
Experimental: FIG. 34. Effects of co-administration of RS102895 (small molecule inhibitor, Tocris BioSciences), on spleen lymphocyte production of IFN-γ from vaccinated animals (T cell response). Mice were vaccinated s.c. with standard vaccine adjuvant (CLDC) and 5 ug ovalbumin and boosted 10 days later. A first group of mice (n=4 per group) received the vaccine only (cross-hatch). A second group of mice was vaccinated and also treated 1 day before, on the same day, and 1 day after with 5 mg/kg of the CCR2 antagonist RS102895, administered i.p. (horizontal line bar). A third group of mice was vaccinated and also treated 1 day before, on the same day, and 1 day after with 5 mg/kg of the CCR2 antagonist RS102895, administered s.q. at the site of vaccination (vertical line bar). The mice were sacrificed 2 weeks after the booster vaccination and spleen cells were incubated in vitro with ovalbumin (50 ug/ml) for 72 hours. Release of […] into the supernatants was determined by ELISA.
Mice were vaccinated s.c. with standard vaccine adjuvant (CLDC) and 5 ug ovalbumin and boosted 10 days later. One group of mice (n=4 per group) received the vaccine only. A second group of mice was vaccinated and also treated 1 day before, on the same day, and 1 day after with 5 mg/kg of the CCR2 antagonist RS102895, administered i.p. A third group of mice was vaccinated and also treated 1 day before, on the same day, and 1 day after with 5 mg/kg of the CCR2 antagonist RS102895, administered s.c. at the site of vaccination. The mice were sacrificed 2 weeks after the booster vaccination and spleen cells were incubated in vitro with ovalbumin (50 ug/ml) for 72 hours and release of IFN-γ into the supernatants was determined by ELISA. […] The data from this study is presented at FIG. 34.

human recombinant CCR2b = target: T3, human recombinant CCR2b (Homo sapiens, UniProt P41597); conditions: read-out: IC50 for inhibition of human recombinant CCR2b receptor; cited from earlier work
T3 sequence (P41597 1-360 isoform P41597-2): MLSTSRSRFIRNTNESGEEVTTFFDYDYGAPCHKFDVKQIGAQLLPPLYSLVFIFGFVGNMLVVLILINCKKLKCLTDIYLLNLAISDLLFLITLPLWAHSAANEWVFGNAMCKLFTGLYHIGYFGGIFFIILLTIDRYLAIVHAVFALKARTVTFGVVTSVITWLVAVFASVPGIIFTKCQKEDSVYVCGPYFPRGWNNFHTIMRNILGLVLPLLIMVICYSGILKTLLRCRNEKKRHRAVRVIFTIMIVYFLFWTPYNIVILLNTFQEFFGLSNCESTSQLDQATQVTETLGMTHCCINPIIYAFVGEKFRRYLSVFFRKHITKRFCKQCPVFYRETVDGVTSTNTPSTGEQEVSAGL

human recombinant CCR1 = target: T4, human recombinant CCR1 (Homo sapiens, UniProt P32246); conditions: read-out: IC50 for inhibition of human recombinant CCR1 receptor; cited from earlier work
T4 sequence (P32246 1-355): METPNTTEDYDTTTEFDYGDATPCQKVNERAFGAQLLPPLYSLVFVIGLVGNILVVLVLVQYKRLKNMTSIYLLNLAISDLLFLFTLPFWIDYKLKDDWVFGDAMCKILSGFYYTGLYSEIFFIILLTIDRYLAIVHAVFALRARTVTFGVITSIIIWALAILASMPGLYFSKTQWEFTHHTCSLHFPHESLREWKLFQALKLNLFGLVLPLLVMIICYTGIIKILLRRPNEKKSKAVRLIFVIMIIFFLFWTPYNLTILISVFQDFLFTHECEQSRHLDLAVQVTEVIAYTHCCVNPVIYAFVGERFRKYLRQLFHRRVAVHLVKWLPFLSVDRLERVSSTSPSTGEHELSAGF

[4] = system: MCP-1-stimulated calcium influx; conditions: read-out: IC50, block of MCP-1-stimulated calcium influx; cited from earlier work
[5] = system: MCP-1-stimulated chemotaxis; conditions: read-out: IC50, block of MCP-1-stimulated chemotaxis; cited from earlier work
α1A receptor = target: T5, α1A receptor (Homo sapiens, UniProt P35348); conditions: cited from earlier work
T5 sequence (P35348 1-466): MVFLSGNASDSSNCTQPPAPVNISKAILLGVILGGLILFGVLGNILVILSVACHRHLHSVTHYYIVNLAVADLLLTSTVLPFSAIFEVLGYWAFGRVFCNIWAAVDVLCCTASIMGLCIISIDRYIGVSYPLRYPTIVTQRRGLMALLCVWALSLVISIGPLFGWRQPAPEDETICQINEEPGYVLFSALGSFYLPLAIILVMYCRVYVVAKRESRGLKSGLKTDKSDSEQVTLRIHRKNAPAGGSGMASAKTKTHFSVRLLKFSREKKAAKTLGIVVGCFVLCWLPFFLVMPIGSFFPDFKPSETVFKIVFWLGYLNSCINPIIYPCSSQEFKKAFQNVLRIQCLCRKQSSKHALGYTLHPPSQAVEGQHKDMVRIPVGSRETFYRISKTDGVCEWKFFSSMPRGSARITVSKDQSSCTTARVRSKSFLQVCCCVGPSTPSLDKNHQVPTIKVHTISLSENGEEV

α1D receptor = target: T6, α1D receptor (Homo sapiens, UniProt P25100); conditions: cited from earlier work
T6 sequence (P25100 1-572): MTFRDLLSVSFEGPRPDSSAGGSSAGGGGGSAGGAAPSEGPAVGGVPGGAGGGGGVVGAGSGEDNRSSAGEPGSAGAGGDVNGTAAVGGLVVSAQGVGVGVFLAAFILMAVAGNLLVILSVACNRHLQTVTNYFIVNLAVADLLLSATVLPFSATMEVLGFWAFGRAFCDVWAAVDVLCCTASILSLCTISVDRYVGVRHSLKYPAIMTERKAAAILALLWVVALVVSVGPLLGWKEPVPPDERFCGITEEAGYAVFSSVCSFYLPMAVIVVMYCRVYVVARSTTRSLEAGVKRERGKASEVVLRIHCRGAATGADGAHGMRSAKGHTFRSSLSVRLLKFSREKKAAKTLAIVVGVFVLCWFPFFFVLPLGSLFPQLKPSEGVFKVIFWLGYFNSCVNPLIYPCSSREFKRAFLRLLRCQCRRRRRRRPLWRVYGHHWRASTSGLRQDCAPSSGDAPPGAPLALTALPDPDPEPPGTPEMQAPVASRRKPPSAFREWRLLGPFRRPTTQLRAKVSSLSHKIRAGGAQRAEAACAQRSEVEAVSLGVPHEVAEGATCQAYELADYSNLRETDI

5-HT1A receptor = conditions: cited from earlier work
CCR2 [6] = target: T1, CCR2; conditions: bind or taxis not given; read-out: CCR2 antagonist potency; cited from earlier work

T1 sequence (P41597 whole entry, species assumed): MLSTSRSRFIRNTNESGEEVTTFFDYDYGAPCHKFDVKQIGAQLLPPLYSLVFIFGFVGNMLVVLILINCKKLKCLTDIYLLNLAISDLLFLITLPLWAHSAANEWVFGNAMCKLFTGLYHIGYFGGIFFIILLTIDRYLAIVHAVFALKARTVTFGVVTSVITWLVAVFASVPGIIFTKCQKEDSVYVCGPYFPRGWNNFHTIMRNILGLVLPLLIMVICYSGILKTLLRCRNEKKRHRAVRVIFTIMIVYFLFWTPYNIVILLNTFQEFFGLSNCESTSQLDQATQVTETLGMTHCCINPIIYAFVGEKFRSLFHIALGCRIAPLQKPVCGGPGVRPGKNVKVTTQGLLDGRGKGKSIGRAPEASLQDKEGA
T2 sequence (P51683 whole entry): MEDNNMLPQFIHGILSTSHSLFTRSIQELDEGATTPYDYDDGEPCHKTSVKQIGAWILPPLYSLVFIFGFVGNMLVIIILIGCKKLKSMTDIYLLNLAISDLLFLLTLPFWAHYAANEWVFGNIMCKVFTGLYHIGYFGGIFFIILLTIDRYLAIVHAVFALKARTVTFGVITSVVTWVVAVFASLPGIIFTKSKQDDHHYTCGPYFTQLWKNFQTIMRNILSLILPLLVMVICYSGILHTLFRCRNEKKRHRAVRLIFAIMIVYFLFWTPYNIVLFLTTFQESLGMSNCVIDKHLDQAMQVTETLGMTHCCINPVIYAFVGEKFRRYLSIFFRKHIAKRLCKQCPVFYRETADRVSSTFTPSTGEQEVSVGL

## CN(CCN1CCCCC1)c1ccc(-c2nc3cc(Sc4ccc(Cl)c(Cl)c4)ccc3[nH]2)cc1 [Benzimidazoles]
CCR2 [1]
  IC50: 0.2 to 0.3 µM

## Cl.O=C1Nc2ccccc2C2(CCN(CCc3ccc(C(F)(F)F)cc3)CC2)O1 [RS102895]
CCR2 [2]; either route
  antibody titers to ova relative to vaccine alone: ≥ 2 ×
CCR2 [2]; i.p. or s.c., 2 weeks after boost
  antibody titers to ovalbumin vs vaccine alone: significantly higher antibody titers
CCR2 [3]; 5 mg/kg SQ at site of vaccination, ovalbumin 50 ug/ml 72 hours, without CCR2 antagonist about 450
  IFN-γ production by spleen cells: about 1,400 pg/ml
CCR2 [3]; 5 mg/kg i.p., ovalbumin 50 ug/ml 72 hours, without CCR2 antagonist about 450
  IFN-γ production by spleen lymphocytes: about 2,300 pg/ml
CCR2 [3]; 5 mg/kg, either route
  IFN-γ production vs vaccinated without RS102895: significantly higher amounts of IFN-γ
Human recombinant CCR2b
  IC50: 0.36 µM
Human recombinant CCR1
  IC50: 17.8 µM
[4]
  IC50: 0.032 µM
[5]
  IC50: 1.7 µM
α1A receptor
  inhibition of α1A receptor: inhibits
α1D receptor
  inhibition of α1D receptor: inhibits
5-HT1A receptor
  inhibition of 5-HT1A receptor: inhibits

## O=C(/C=C/c1ccc(Cl)c(Cl)c1)NC1CCC(CN2C3CCC2CC(c2c[nH]c4ccc(O)cc24)C3)CC1 (stereo not drawn) [SB-380732]
CCR2 [1]
  IC50: 0.05 µM

## O=C(CNC(=O)c1ccccc1)NC1CCN(Cc2ccccc2)C1 (stereo not drawn) [3-Aminopyrrolidines]
CCR2 [6]
  IC50: 0.003 µM
